In ChEMBL document CHEMBL3301361, “Experimental in vitro DMPK and physicochemical data on a set of publicly disclosed compounds”:
Converted amounts (≈) assume the structure as drawn.

Tests used:
in vitro [1] = conditions: human, plasma
in vitro [2] = conditions: Beagle, dog, plasma
in vitro [3] = conditions: SD, HW or BN, rat, plasma
physchem [4] = conditions: octan-1-ol/water
physchem [5] = conditions: pH 7.4 buffer
physchem [6] = experiment: physchem
in vitro [7] = conditions: human, hepatocytes
in vitro [8] = conditions: human
in vitro [9] = conditions: hepatocytes

Row | SMILES | fraction unbound at 5 h (in vitro [1]; PPB) | fraction unbound at 5 h (in vitro [2]) | logD (physchem [4]; pH 7.4, LogD7.4) | other results
1 | CCOc1cc2ncc(C(N)=O)c(Nc3cccc(Cl)c3F)c2cc1N1CCN(C)CC1 | 0.0705 | 0.204 | – | fraction unbound at 5 h (in vitro [3]): 0.134
2 | CN(C)CCCN1c2ccccc2CCc2ccccc21 [IMIPRAMINE] | – | 0.0437 | – | fraction unbound at 5 h (in vitro [1]): 0.121; fraction unbound at 5 h (in vitro [3]): 0.173
3 | OC[C@H]1C[C@@H](n2nnc3c(N[C@@H]4C[C@H]4c4ccc(F)c(F)c4)nc(SCCC(F)(F)F)nc32)[C@H](O)[C@@H]1O | 0.0015 | 0.002 | 3.99 | solubility thermodynamic (physchem [5]): 7.2 µM (≈ 3.93 µg/mL)
4 | Cc1ccc(NC(=O)c2cccc(C(C)(C)C#N)c2)cc1Nc1ccc2ncn(C)c(=O)c2c1 | 0.0039 | 0.004 | – | fraction unbound at 5 h (in vitro [3]): 0.5
5 | CC(C)n1c(/C=C/C(O)CC(O)CC(=O)O)c(-c2ccc(F)cc2)c2ccccc21 (stereo unspecified) [FLUVASTATIN] | – | 0.0028 | – | fraction unbound at 5 h (in vitro [1]): 0.0048
6 | NC1=Nc2ccccc2Sc2cccc(F)c21 | 0.0568 | – | – | pKa (physchem [6]): 6.5; hepatocyte CLint (in vitro [7]): 13.2 µL/min/1e6 cells
7 | N#Cc1ccc2ccc(=O)n(CCN3CC[C@H](NCc4cc5c(cn4)OCCO5)[C@H](O)C3)c2c1 | – | 0.608 | 0.46 | fraction unbound at 5 h (in vitro [3]): 0.734
8 | CNC(=C[N+](=O)[O-])NCCSCc1ccc(CN(C)C)o1 [RANITIDINE] | – | 0.711 | -0.95 | –
9 | CC(C)(C)NC(=O)NCCN1CCC(CNC(=O)c2cc(Cl)cc(Cl)c2)C1 (stereo unspecified) | 0.0968 | 0.0909 | – | fraction unbound at 5 h (in vitro [3]): 0.139
10 | C[C@H](CO)Nc1nc(SCc2cccc(Cl)c2F)nc2[nH]c(=O)sc12 | – | 0.0005 | 3.53 | solubility thermodynamic (physchem [5]): 1 µM (≈ 0.401 µg/mL)
11 | COc1ccc(NC(=O)c2ccc(Cn3ccnn3)c3ccccc23)c(C(=O)NCC2CCOCC2)n1 | – | 0.028 | – | –
12 | CC(C)Cn1c(=O)n(C)c(=O)c2c(SCCCO)n(Cc3cccc4ccccc34)cc21 | – | 0.0034 | 4.36 | –
13 | NC1=Nc2ccccc2Sc2ccccc21 | – | – | – | pKa (physchem [6]): 7.2; hepatocyte CLint (in vitro [7]): 7.94 µL/min/1e6 cells
14 | CC(C)c1nc2ccc(-c3ccc(F)cc3)cc2c(=O)n1C[C@H]1CCCN(C(C)C)C1 | – | – | 3.6 | microsomal CLint (in vitro [8]; microsomes): 12.9 µL/min/mg; pKa (physchem [6]): 9.91; solubility thermodynamic (physchem [5]): 537 µM (≈ 226 µg/mL); hepatocyte CLint (in vitro [9]): 29.5 µL/min/1e6 cells
15 | OC[C@H](Nc1ncc(Cl)c(Nc2cc(C3CC3)n[nH]2)n1)c1ccc(F)cc1 | 0.0437 | 0.0499 | 3.75 | –
16 | Cc1cc(F)ccc1Oc1cccc2c(=O)cc(N3CCOCC3)[nH]c12 | – | 0.0088 | – | fraction unbound at 5 h (in vitro [3]): 0.0854
17 | CC(C)(C)NC(=O)NCCN1CCN(CC(=O)Nc2cc(Cl)cc(Cl)c2)CC1 | 0.0521 | 0.0556 | – | –
18 | Cc1ccc2c(c1)c(-c1cc(C)nc3ccccc13)c(C)n2CC(=O)O | 0.004 | 0.0133 | 2.88 | microsomal CLint (in vitro [8]; liver microsomes): < 3 µL/min/mg
19 | N#Cc1ccccc1C[C@@H](C(=O)O)N1CCC(CN2CCC(Oc3ccc(Cl)c(Cl)c3)CC2)CC1 | – | 0.0661 | – | solubility thermodynamic (physchem [5]): 288 µM (≈ 149 µg/mL); fraction unbound at 5 h (in vitro [3]): 0.224
20 | Cc1c(Sc2ccc(Cl)cc2)c2c(S(C)(=O)=O)cccc2n1CC(=O)O | 0.035 | 0.0256 | 0.58 | microsomal CLint (in vitro [8]; microsomes): < 3 µL/min/mg
21 | CC(C)Cc1nn(C)c(=O)c2c(SCCCO)n(Cc3cccc4ccccc34)cc12 | 0.0027 | 0.0013 | – | –
22 | CCCc1nc(C(C)(C)O)c(C(=O)O)n1Cc1ccc(-c2ccccc2-c2nnn[nH]2)cc1 [OLMESARTAN] | – | 0.0119 | – | –
23 | CC(NC(C)(C)C)C(=O)c1cccc(Cl)c1 (stereo unspecified) [BUPROPION] | – | – | – | microsomal CLint (in vitro [8]; microsomes): 12 µL/min/mg; fraction unbound at 5 h (in vitro [1]): 0.54; pKa (physchem [6]): 8.4; logD (physchem [4]; pH 7.4): 2.12; hepatocyte CLint (in vitro [9]): 72.4 µL/min/1e6 cells

Row | SMILES | fraction unbound at 5 h (in vitro [1]; PPB) | fraction unbound at 5 h (in vitro [2]) | logD (physchem [4]; pH 7.4, LogD7.4) | other results
24 | CCCCNc1nc(SCCC)nc2c1nnn2[C@@H]1C[C@H](CO)[C@@H](O)[C@H]1O | 0.024 | 0.0467 | 3.07 | microsomal CLint (in vitro [8]; microsomes): 6 µL/min/mg
25 | NC(=O)c1cnc(N[C@H]2CCCNC2)c2cc(-c3ccccc3)sc12 | – | 0.0366 | – | fraction unbound at 5 h (in vitro [3]): 0.224
26 | COc1ccc2c(c1)c(CC(=O)O)c(C)n2-c1ccnc2cc(Cl)ccc12 | 0.0099 | 0.0183 | 1.68 | microsomal CLint (in vitro [8]; liver microsomes): < 3 µL/min/mg
27 | C[C@H](CO)Nc1nc(SCc2cccc(F)c2F)nc2nc(N)sc12 | 0.0196 | 0.0366 | 3.29 | solubility thermodynamic (physchem [5]): 8.1 µM (≈ 3.11 µg/mL)
28 | Cc1cc(-c2ccc(Cl)c(C(=O)NCC3(O)CCCCCC3)c2)nn1C[C@H](O)CN | 0.304 | – | 0.57 | microsomal CLint (in vitro [8]; liver microsomes): < 3 µL/min/mg; pKa (physchem [6]): 8.6; hepatocyte CLint (in vitro [7]): < 3 µL/min/1e6 cells; hepatocyte CLint (in vitro [9]): < 3 µL/min/1e6 cells; fraction unbound at 5 h (in vitro [3]): 0.309
29 | Cc1oc(CN2CCNCC2)cc1C(=O)NCC12CC3CC(CC(C3)C1)C2 | 0.148 | 0.437 | 1.03 | –
30 | C[C@H](CO)Nc1nc(SCc2cccc(F)c2F)nc2[nH]c(=O)cnc12 | 0.0114 | 0.028 | 3.1 | solubility thermodynamic (physchem [5]): 3.5 µM (≈ 1.33 µg/mL)
31 | O=C(NCC12CC3CC(CC(C3)C1)C2)c1cc(CN2C[C@@H]3C[C@H]2CN3)ccc1Cl | 0.0968 | 0.114 | 1.45 | microsomal CLint (in vitro [8]; liver microsomes): 13 µL/min/mg
32 | COc1ncc(-c2cccc3c2C[C@H](NC(=O)c2ccc(COCC(F)(F)F)nc2)CO3)cn1 | 0.0366 | 0.0705 | – | solubility thermodynamic (physchem [5]): 158 µM (≈ 75.2 µg/mL)
33 | Cc1c(CC(=O)O)c2cc(F)ccc2n1S(=O)(=O)c1ccc(S(C)(=O)=O)cc1 | – | 0.0521 | -0.44 | –
34 | CCNC(=O)[C@H]1C[C@@](F)(c2ccc(CN3CCCC3)c(F)c2)C1 [PF-03654746] | – | 0.807 | – | fraction unbound at 5 h (in vitro [3]): 0.772
35 | CCCNC(=O)NS(=O)(=O)c1ccc(Cl)cc1 [CHLORPROPAMIDE] | 0.04 | 0.142 | -0.33 | –
36 | CCCSc1nc(N[C@@H]2C[C@H]2c2ccccc2)c2nnn([C@@H]3C[C@H](O)[C@@H](O)[C@H]3O)c2n1 | – | 0.0066 | 3.97 | microsomal CLint (in vitro [8]; liver microsomes): < 3 µL/min/mg; solubility thermodynamic (physchem [5]): 1.1 µM (≈ 0.487 µg/mL)
37 | CN(C)CCN1CCN(c2cc(C(=O)NC[C@H]3CC[C@H](CNC(=O)OC(C)(C)C)CC3)c3ccccc3n2)CC1 | – | 0.0293 | – | –
38 | OCCO[C@H]1C[C@@H](n2nnc3c(N[C@@H]4C[C@H]4c4ccc(F)c(F)c4)nc(SCCC(F)(F)F)nc32)[C@H](O)[C@@H]1O | 0.0015 | 0.0046 | 4.17 | –
39 | CCCSc1nc(N)c2ncn([C@@H]3O[C@H](CO)[C@@H](O)[C@H]3O)c2n1 | 0.483 | 0.591 | – | –
40 | CCOc1cc2ncc(C(N)=O)c(Nc3cc(C)ccc3F)c2cc1N1CCN(C)CC1 | – | 0.365 | – | fraction unbound at 5 h (in vitro [3]): 0.107
41 | Cc1c(Cl)ccc(OC2CCN(C3CCN(C(=O)c4cccc(S(C)(=O)=O)c4)CC3)CC2)c1Cl | 0.035 | 0.035 | 3.33 | microsomal CLint (in vitro [8]; liver microsomes): 13.5 µL/min/mg
42 | CNc1cc2[nH]c(=O)n(-c3ccc(NC(=O)NS(=O)(=O)c4ccc(Cl)s4)cc3)c(=O)c2cc1F [ELINOGREL] | 0.0042 | 0.0069 | – | –
43 | N#Cc1ccc2ccc(=O)n(CCN3CC[C@@H](NCc4cc5c(cn4)OCCO5)[C@@H](O)C3)c2c1 | – | 0.602 | 0.45 | fraction unbound at 5 h (in vitro [3]): 0.471
44 | CC(C)Cn1c(=O)n(C)c(=O)c2c(C(=O)N3CC[C@@H](O)C3)c(Cc3c[nH]c4ccccc34)sc21 | 0.0854 | 0.443 | 2.35 | microsomal CLint (in vitro [8]; liver microsomes): 107 µL/min/mg
45 | Cc1nc2ccc(-c3ccc(Cl)cc3)cc2c(=O)n1C[C@H]1CCCN(C(C)C)C1 | – | – | 3.3 | microsomal CLint (in vitro [8]; microsomes): < 3 µL/min/mg; pKa (physchem [6]): 10.1; hepatocyte CLint (in vitro [9]): 3.8 µL/min/1e6 cells
